According to ChEMBL document CHEMBL1149031, “New bioactive taxoids from cell cultures of Taxus baccata” (1994):
Each block holds one compound with its values, some of them ahead of it.

Key:
[1] = species: Bos taurus; assay: Ratio of compound ED50 to taxol ED50 for bovine brain tubulin assembly at 1 mg/ml of tubulin concentration
[2] = species: Bos taurus; assay: Induction of bovine brain tubulin assembly at 1 mg/ml of tubulin concentration
[3] = species: Bos taurus; assay: Ratio of compound ED50 to taxol ED50 for bovine brain tubulin assembly at 1.5 mg/ml of tubulin concentration
[4] = species: Bos taurus; assay: Induction of bovine brain tubulin assembly at 1.5 mg/ml of tubulin concentration
[5] = system: DMS-114; assay: Cytotoxicity against human DMS114 cells; type: functional; settings: for CC50: read-out: LC50 (the source's name)
[6] = system: COLO 205; assay: Cytotoxicity against human COLO205 cells; type: functional; settings: for CC50: read-out: LC50 (the source's name)
[7] = system: NCI-H460; assay: Cytotoxicity against human NCI-H460 cells; type: functional
[8] = system: HOP-62; assay: Cytotoxicity against human HOP62 cells; type: functional
[9] = system: SF-539; assay: Cytotoxicity against human SF539 cells; type: functional
[10] = system: SNB-75; assay: Cytotoxicity against human SNB75 cells; type: functional; settings: for CC50: read-out: LC50 (the source's name)
[11] = system: OVCAR-3; assay: Cytotoxicity against human OVCAR-3 cells; type: functional

Structure (SMILES): C/C=C(\C)C(=O)N[C@@H](c1ccccc1)[C@@H](O)C(=O)O[C@H]1C[C@@]2(O)[C@@H](OC(=O)c3ccccc3)[C@@H]3[C@]4(OC(C)=O)CO[C@@H]4C[C@H](O)[C@@]3(C)C(=O)[C@H](OC(C)=O)C(=C1C)C2(C)C
Ratio ED50 [1]: 1.05 | ED50 [2]: 0.85 µM | Ratio ED50 [3]: 1.11 | ED50 [4]: 0.95 µM

Structure (SMILES): CCCCCC(=O)N(C)[C@@H](c1ccccc1)[C@@H](O)C(=O)O[C@H]1C[C@@]2(O)[C@@H](OC(=O)c3ccccc3)[C@@H]3[C@]4(OC(C)=O)CO[C@@H]4C[C@H](O)[C@@]3(C)C(=O)[C@H](OC(C)=O)C(=C1C)C2(C)C
Ratio ED50 [1]: 1.66 | ED50 [2]: 1.91 µM

Structure (SMILES): CC(=O)O[C@H]1C(=O)[C@@]2(C)[C@H]([C@H](OC(=O)c3ccccc3)[C@]3(O)C[C@H](OC(=O)[C@H](O)[C@@H](NC(=O)c4ccccc4)c4ccccc4)C(C)=C1C3(C)C)[C@]1(OC(C)=O)CO[C@@H]1C[C@@H]2O [PACLITAXEL]
GI50 [5]: 0.0123 µM | TGI [5]: 0.0612 µM | CC50 [5]: > 1 µM | GI50 [6]: 0.00176 µM | TGI [6]: 0.0432 µM | CC50 [6]: 0.145 µM | ED50 [2]: 0.95 µM | GI50 [7]: 0.0219 µM | TGI [7]: > 1 µM | GI50 [8]: 0.0671 µM | TGI [8]: > 1 µM | GI50 [9]: 0.00366 µM | TGI [9]: 0.0899 µM | CC50 ([9]; read-out: LC50 (the source's name)): > 25 µM | GI50 [10]: 0.00808 µM | TGI [10]: 0.0773 µM | CC50 [10]: > 1 µM | ED50 [4]: 0.76 µM | GI50 [11]: 0.0197 µM | TGI [11]: 0.0487 µM

Structure (SMILES): CCCCCC(=O)N[C@@H](c1ccccc1)[C@@H](O)C(=O)O[C@H]1C[C@@]2(O)[C@@H](OC(=O)c3ccccc3)[C@@H]3[C@]4(OC(C)=O)CO[C@@H]4C[C@H](O)[C@@]3(C)C(=O)[C@H](OC(C)=O)C(=C1C)C2(C)C [TAXOL C]
GI50 [5]: < 0.01 µM | TGI [5]: 0.0238 µM | CC50 [5]: 21.7 µM | Ratio ED50 [1]: 1.05 | GI50 [6]: < 0.01 µM | TGI [6]: 0.0229 µM | CC50 [6]: 23.3 µM | ED50 [2]: 1 µM | Ratio ED50 [3]: 1.82 | GI50 [7]: < 0.01 µM | LC50 [7]: 69.8 µM | TGI [7]: 0.349 µM | GI50 [8]: < 0.01 µM | LC50 (concentration killing 50% of cells) [8]: 32 µM | TGI [8]: 0.0121 µM | GI50 [9]: < 0.01 µM | TGI [9]: < 0.01 µM | GI50 [10]: < 0.01 µM | TGI [10]: 0.0192 µM | CC50 [10]: > 100 µM | ED50 [4]: 1.4 µM | GI50 [11]: < 0.01 µM | LC50 [11]: > 100 µM | TGI [11]: < 0.01 µM

More lines, now with the values ahead:

Ratio ED50 [1]: 2.04 | ED50 [2]: 2.35 µM
Structure (SMILES): CCCC(=O)N[C@@H](c1ccccc1)[C@@H](O)C(=O)O[C@H]1C[C@@]2(O)[C@@H](OC(=O)c3ccccc3)[C@@H]3[C@]4(OC(C)=O)CO[C@@H]4C[C@H](O)[C@@]3(C)C(=O)[C@H](OC(C)=O)C(=C1C)C2(C)C

Ratio ED50 [1]: 2.57 | ED50 [2]: 2.96 µM
Structure (SMILES): CCCCCC(=O)N[C@@H](c1ccccc1)[C@@H](O)C(=O)O[C@H]1C[C@@]2(O)[C@@H](OC(=O)c3ccccc3)[C@@H]3[C@]4(OC(C)=O)CO[C@@H]4C[C@H](O)[C@@]3(C)C(=O)[C@H](O)C(=C1C)C2(C)C
